Measured values reported in publication PMC4315625 (Cancer discovery, 2014).
Like-named read-outs stand apart in the source and are kept apart here.

Columns and labels:
IGF-1R = IGF-1R (Homo sapiens, UniProt P08069); experiment: Cellular IGF-1R phosphorylation assay; type: cell-based; conditions: cellular phosphorylation assay as surrogate
HER2 (ErbB2) = HER2 (ErbB2) (Homo sapiens, UniProt P04626); experiment: Cellular HER2 phosphorylation; type: cell-based; conditions: three cellular approaches
HER2 (ErbB2), sequence (P04626 676-1255 limits assumed): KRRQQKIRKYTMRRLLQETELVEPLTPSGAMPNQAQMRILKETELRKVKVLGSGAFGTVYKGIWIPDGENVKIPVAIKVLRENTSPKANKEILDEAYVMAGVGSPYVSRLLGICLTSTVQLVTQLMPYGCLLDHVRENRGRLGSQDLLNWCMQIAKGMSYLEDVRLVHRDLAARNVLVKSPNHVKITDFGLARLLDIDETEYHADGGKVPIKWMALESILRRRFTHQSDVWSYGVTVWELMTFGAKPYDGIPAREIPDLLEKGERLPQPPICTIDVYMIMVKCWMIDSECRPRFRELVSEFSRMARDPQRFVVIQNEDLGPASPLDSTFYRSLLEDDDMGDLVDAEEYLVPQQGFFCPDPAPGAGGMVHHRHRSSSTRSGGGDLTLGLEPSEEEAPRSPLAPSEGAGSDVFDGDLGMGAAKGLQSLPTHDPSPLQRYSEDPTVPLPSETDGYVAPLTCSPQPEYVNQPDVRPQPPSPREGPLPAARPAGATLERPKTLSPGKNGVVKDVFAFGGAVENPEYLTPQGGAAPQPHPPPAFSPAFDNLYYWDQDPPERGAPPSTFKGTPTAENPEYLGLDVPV

[1] = molecular target: wild-type EGFR (A431, LOVO, NCI-H2073) (Homo sapiens, UniProt P00533); experiment: In vitro EGFR phosphorylation assay; type: cell-based; conditions: read-out: potency against wild-type EGFR
[2] = tested on: mutant and wild-type EGFR cell lines; experiment: Sytox phenotypic assay across cell lines; type: cell-based
[3] = molecular target: EGFR variant III (EGFRvIII) (Homo sapiens, UniProt P00533, DELINS30-297G); experiment: Phospho-EGFR immunoblot in transfected 293 cells, EGFRvIII; type: cell-based; conditions: 6 hours
[4] = Preliminary clinical pharmacokinetics, AURA Phase 1; type: in vivo, human
[5] = tested on: EGFR^L858R + T790M driven lung adenocarcinomas (C/L+T mice); experiment: C/L+T transgenic lung adenocarcinoma model; conditions: AZD9291 5 mg/kg/day, afatinib 7.5 mg/kg/day, AZ5104 5 mg/kg/day; one to two weeks
[6] = tested on: EGFR^L858R driven lung adenocarcinomas (C/L858R mice); experiment: C/L858R transgenic lung adenocarcinoma model
[7] = Pharmacokinetics after oral dosing in the mouse; type: in vivo
[8] = tested on: EGFR in mutant and wild-type cell lines; experiment: In vitro EGFR phosphorylation assay, mutant and wild-type cell lines overall; conditions: compared to AZD9291
[9] = tested on: Parental EGFRm+ lines (PC-9, H3255, HCC827, HCC4006, 11-18); experiment: Growth inhibition assay; type: cell-based; conditions: independent laboratory
[10] = tested on: approximately 280 other kinases; experiment: Commercial biochemical kinome panel
[11] = Blood glucose and insulin levels after single oral dose in rats; type: in vivo, rat; conditions: single oral dose of 200 mg/kg, over a 24 hour period
NCI-H820 cells = experiment: Large cell panel proliferation profiling study; type: cell-based; conditions: NCI-H820, read-out: IC50, proliferation
EBC-1 cells = experiment: Large cell panel proliferation profiling study; type: cell-based; conditions: Homo sapiens, EBC-1, read-out: IC50, proliferation
[12] = tested on: EGFR L861Q, G719S and exon 19 insertion (I744-K745insKIPVAI); experiment: Phospho-EGFR immunoblot in transfected 293 cells, rare sensitive mutants; type: cell-based; conditions: 6 hours
[13] = tested on: H1781 cells (VC insertion at G776 in exon 20 of HER2); experiment: Growth inhibition of HER2 mutant H1781 cells; type: cell-based; conditions: NCI-H1781, read-out: IC50, growth
[14] = tested on: phospho-EGFR (Tyr1173) in H1975 xenografts; experiment: Pharmacodynamics in H1975 xenografts; type: in vivo, mouse; conditions: single dose 5 mg/kg
[15] = tested on: advanced EGFRm+ T790M NSCLC; experiment: Radiographic tumor response; type: in vivo, human; conditions: for tumor shrinkage: 20 mg once daily
[16] = Adverse events and blood glucose in two patients, AURA Phase 1; type: in vivo, human
[17] = Body weight of xenograft-bearing mice on daily dosing; type: in vivo, mouse; conditions: daily dosing for 200 days, PC-9 and H1975 studies
[18] = tested on: lines harboring EGFR T790M (H1975, HCC827/ER1, PC-9/BRc1 and H3255/XLR); conditions: independent laboratory
[19] = tested on: lines harboring non-T790M resistance: 11-18/ER (NRAS), HCC827/ER2 (MET amplification), HCC4006/ER (EMT); conditions: independent laboratory
A431 xenografts = conditions: 5 mg/kg/day
[20] = tested on: phospho-EGFR and downstream markers; conditions: 5mg/kg dosing
[21] = tested on: PC-9 (ex19del) tumor xenograft; experiment: PC-9
[22] = tested on: wild-type EGFR cell lines (Calu3, H2073); experiment: Sytox Green live/dead cell phenotype assay, wild-type EGFR lines; type: cell-based; conditions: compared to AZD9291
[23] = tested on: T790M EGFR cell lines (H1975, PC-9VanR); conditions: compared to AZD9291
[24] = tested on: EGFR^L858R driven lung adenocarcinomas (C/L858R mice); conditions: cited from earlier work
[25] = tested on: EGFR^L858R + T790M driven lung adenocarcinomas (C/L+T mice); conditions: cited from earlier work
[26] = patients, AZD9291 mesylate 20 mg oral, preliminary

IGF-1R, sequence (P08069 31-1367, species assumed): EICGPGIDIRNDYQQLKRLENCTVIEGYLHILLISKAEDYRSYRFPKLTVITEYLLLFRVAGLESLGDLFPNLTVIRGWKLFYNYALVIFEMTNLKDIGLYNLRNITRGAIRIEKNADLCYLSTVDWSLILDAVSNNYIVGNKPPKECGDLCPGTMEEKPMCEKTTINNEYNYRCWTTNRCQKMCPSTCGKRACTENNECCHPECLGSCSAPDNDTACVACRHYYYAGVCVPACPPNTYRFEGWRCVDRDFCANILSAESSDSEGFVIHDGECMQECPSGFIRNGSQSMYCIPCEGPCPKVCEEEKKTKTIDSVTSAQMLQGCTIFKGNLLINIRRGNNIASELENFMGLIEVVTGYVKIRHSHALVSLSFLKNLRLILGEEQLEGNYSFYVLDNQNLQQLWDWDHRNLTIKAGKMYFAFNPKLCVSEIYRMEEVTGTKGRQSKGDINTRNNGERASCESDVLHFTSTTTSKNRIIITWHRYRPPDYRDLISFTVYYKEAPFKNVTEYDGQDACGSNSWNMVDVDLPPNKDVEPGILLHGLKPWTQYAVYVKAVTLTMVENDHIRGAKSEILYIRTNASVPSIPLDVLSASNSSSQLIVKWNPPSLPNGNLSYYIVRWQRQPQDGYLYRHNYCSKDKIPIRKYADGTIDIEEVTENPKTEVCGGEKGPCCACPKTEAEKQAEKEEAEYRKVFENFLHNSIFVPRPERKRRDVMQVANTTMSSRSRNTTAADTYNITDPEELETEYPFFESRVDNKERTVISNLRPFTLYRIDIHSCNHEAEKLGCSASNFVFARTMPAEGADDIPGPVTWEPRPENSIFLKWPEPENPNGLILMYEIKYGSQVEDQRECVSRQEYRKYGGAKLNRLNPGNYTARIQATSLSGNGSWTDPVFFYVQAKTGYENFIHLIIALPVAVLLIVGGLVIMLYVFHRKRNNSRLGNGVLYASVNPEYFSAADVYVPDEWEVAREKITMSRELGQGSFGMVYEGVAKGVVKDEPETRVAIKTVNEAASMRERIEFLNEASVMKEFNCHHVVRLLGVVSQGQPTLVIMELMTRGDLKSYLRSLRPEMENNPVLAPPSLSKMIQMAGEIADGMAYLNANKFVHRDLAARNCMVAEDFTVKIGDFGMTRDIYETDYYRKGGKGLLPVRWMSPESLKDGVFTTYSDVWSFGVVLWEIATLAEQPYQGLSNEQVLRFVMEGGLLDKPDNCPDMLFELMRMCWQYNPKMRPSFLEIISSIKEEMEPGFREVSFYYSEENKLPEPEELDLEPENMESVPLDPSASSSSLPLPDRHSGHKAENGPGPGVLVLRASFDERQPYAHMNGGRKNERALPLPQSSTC

C=CC(=O)Nc1cc(Nc2nccc(-c3c[nH]c4ccccc34)n2)c(OC)cc1N(C)CCN(C)C [AZ5104]
activity towards IGF-1R (IGF-1R): did not exhibit significant activity | inhibition of phosphorylation of HER2 (HER2 (ErbB2)): more potency than AZD9291 | IC50 [1]: 33 nM | potency across cell lines in phenotypic assay ([2]; compared to AZD9291): much greater potency across cell lines | potency against EGFRvIII mutant [3]: higher level of activity | half-life [4, 26]: at least 50 hours | tumor response [5]: effective in shrinking tumors | tumor response ([6]; AZ5104 5 mg/kg/day): effective in shrinking tumors

C=CC(=O)Nc1cc(Nc2nccc(-c3cn(C)c4ccccc34)n2)c(OC)cc1N(C)CCNC [AZ7550]
potency across cell lines in phenotypic assay [2]: broadly similar | total exposure levels (AUC) compared to the parent compound ([7]; circulating metabolite in plasma): approximately 68% | half-life [4, 26]: at least 50 hours | potency and profile against mutant and wild-type cell lines [8]: very similar potency and profile to AZD9291

CNC(=O)CN1CCC(Oc2cc3c(Nc4cccc(Cl)c4F)ncnc3cc2OC)CC1 [AZD8931]
sensitivity of parental EGFRm+ lines [9]: sensitive

C=CC(=O)Nc1cc(Nc2nccc(-c3cn(C)c4ccccc34)n2)c(OC)cc1N(C)CCN(C)C [AZD9291]
off-target kinase activity / secondary target profile ([10]; 1 μM): minimal off-target kinase activity | inhibition at 1 μM ([10]; ErbB2/4, ACK1, ALK, BLK, BRK, MLK1 and MNK2): greater than 60% | activity towards IGF-1R (IGF-1R): did not exhibit significant activity | change in blood glucose or insulin levels [11]: did not cause a significant change | inhibition of phosphorylation of HER2 (HER2 (ErbB2)): moderate potency levels | sensitivity of parental EGFRm+ lines [9]: sensitive | IC50 (NCI-H820 cells): ~1000 nM | IC50 (EBC-1 cells): ~1000 nM | effect on phospho-EGFR of L861Q, G719S and exon 19 insertion [12]: somewhat less potent compared with the AZ5104 metabolite | IC50 [13]: 80 nM | bioavailability [7]: good bioavailability | clearance [7]: moderate clearance | tissue distribution [7]: widely distributed in tissues | half-life ([7]; plasma, po): ~3 h | phospho-EGFR and downstream signalling ([14]; after 6 hours): strongly inhibited | phospho-EGFR staining ([14]; after the 30 hour time point): remained significantly diminished | half-life ([4]; human, plasma, po, 20 mg): ≥ 50 h | duration of response ([15]; both patients, 20 mg/day): approximately 9 months | progression-free time ([15]; both patients, 20 mg/day, RECIST 1.1): approximately 11 months | tumor shrinkage ([15]; first patient, scan 1): 39.7% | tumor shrinkage ([15]; first patient, scan 2): 48.3% | tumor shrinkage ([15]; first patient, scan 3): 48.3% | tumor shrinkage ([15]; first patient, scan 4): 48.3% | tumor shrinkage ([15]; first patient, scan 5): 51.7% | tumor shrinkage ([15]; second patient, scan 1): 38% | tumor shrinkage ([15]; second patient, scan 2): 39.3% | tumor shrinkage ([15]; second patient, scan 3): 56.7% | tumor shrinkage ([15]; second patient, scan 4): 62% | tumor shrinkage ([15]; second patient, scan 5): 59.3% | diarrhea events ([16]; 20 mg once daily): one reported CTCAE Grade 1 diarrhea | rash events ([16]; 20 mg once daily): no rash events | blood glucose levels ([16]; during the study): No significant aberration | body weight loss [17]: less than 5 % of starting body weight | activity against lines harboring EGFR T790M [18]: low nanomolar activity | activity against lines harboring non-T790M resistance [19]: not effective | tumor growth inhibition (A431 xenografts): moderate tumor growth inhibition | target inhibition in treated tumors [20]: observed target inhibition | tumors with no visible tumor ([21]; following 40 daily doses with 5 mg/kg, sustained out to 200 days): 8 of 8 | lowest dose with tumor shrinkage observed ([21]; once daily, after 14 days): 2.5 mg/kg/day | tumor response [5]: significant tumor shrinkage | reduction in tumor volume by MRI ([6]; AZD9291 5 mg/kg/day, afatinib 7.5 mg/kg/day, 5 of 5 mice): ~80%

COc1cc2ncnc(Nc3ccc(F)c(Cl)c3)c2cc1NC(=O)/C=C/CN1CCCCC1 [dacomitinib]
potency towards wild-type EGFR, Sytox [22]: much greater potency towards wild-type EGFR | activity against T790M lines, Sytox [23]: much less activity against T790M lines

C#Cc1cccc(Nc2ncnc3cc(OCCOC)c(OCCOC)cc23)c1 [erlotinib]
sensitivity of parental EGFRm+ lines [9]: sensitive | tumor sensitivity [24]: sensitive | tumor sensitivity [25]: resistant

COc1cc2ncnc(Nc3ccc(F)c(Cl)c3)c2cc1OCCCN1CCOCC1 [gefitinib, reference compound]
time until tumors began to re-grow ([21]; 6.25 mg/kg/day): approximately 90 days | tumor regression ([21]; 6.25 mg/kg/day, compared with AZD9291 5 mg/kg): less tumor regression
